Test results as given in patent US20080163390A1, “METHODS AND COMPOSITIONS FOR PROVIDING SA-INDEPENDENT PATHOGEN RESISTANCE IN PLANTS” (UNIVERSITY OF KENTUCKY RESEARCH FOUNDATION, priority 2007, published 2008).

What was measured:
[1] = test system: Turnip Crinkle Virus (TCV); assay: TCV replication and systemic spread after 18:1 infiltration of leaves; assay type: in vivo, Arabidopsis
Source text: (A) RT-PCR analyses showing basal level expression of HRT in HRT ssi2 act1 and HRT ssi2 gly1 plants. The level of β-tubulin was used as an internal control to normalize the amount of cDNA template. The 18:1 levels are a mean of six independent replicates. (B) Systemic spread of TCV to uninoculated tissue in TCV-inoculated plants. RNA was extracted from the uninoculated tissues at 18 dpi and analyzed for the presence of the viral transcripts (TCV-U). Ethidium bromide staining of rRNA was used as a loading control. (C) Typical morphological phenotypes of mock-and TCV-inoculated HRT ssi2 act1 and HRT ssi2 gly1 plants. […] Plants were photographed at 8 dpi. (D) Effect of 18:1 infiltrations on viral replication in the inoculated leaf. Oleic acid (O, 1 mM) or water (W) was injected 24 h before or after (last two lanes) TCV inoculation and the samples were harvested 3 days post inoculation (dpi).
(§1) Pathogen inoculations. Transcripts synthesized in vitro from a cloned cDNA of TCV using T7 RNA polymerase were used for viral infections. For inoculations, the viral transcript was suspended at a concentration of 0.05 μg/μl in inoculation buffer, and the inoculation was performed. After viral inoculations, the plants were transferred to a Conviron MTR30 reach-in chamber maintained at 22° C., 65% relative humidity and 14 hour photoperiod. Inoculations with Pseudomonas syringae were conducted.
Fatty acid analysis and oleic acid infiltration. Fatty acid analysis was carried out using gas chromatorgraphy. Oleic acid (Sigma) was dissolved in water and injected into leaves using a needle-less syringe. To determine the 18:1 concentration required to elevate the leaf 18:1 content in ssi2 plants to wild-type levels, 50 μm to 10 mM were injected into ssi2 leaves followed by fatty acid profiling. A concentration of 500 μm to 1 mM was considered optimal, with similar results being obtained upon injection of either of these concentrations.
RNA extraction, RT-PCR and northern analyses. Small-scale extraction of RNA from one or two leaves was performed in the TRIzol reagent (Invitrogen, Gaihersburg, Md.) following the manufacturer's instructions. RNA quality and concentration were determined by gel electrophoresis and determination of A260. Northern blot analysis and synthesis of random primed probes for PR-1 were carried out. Reverse transcription (RT) and first strand cDNA synthesis was carried out using Superscript II (Invitrogen). Two-to-three independent RNA preparations were used for RT-PCR and each of these were analyzed at least twice by RT-PCR. The RT-PCR was carried out for 35 cycles in order to determine absolute levels of transcripts. The number of amplification cycles was reduced to 22-25 in order to evaluate and quantify any differences among transcript levels before they reached saturation. […]

18:1 content = assay: Fatty acid analysis of leaf 18:1 content (gas chromatography); assay type: in vivo, Arabidopsis
Source text: FIG. 6A-B depicts an abbreviated scheme for lipid biosynthesis and in plant oleic acid levels after 18:1 infiltrations. (A) De novo fatty acid (FA) synthesis occurs exclusively in the plastids of all plant cells and leads to the synthesis of palmitic acid (16:0)-acyl carrier protein (ACP) and oleic acid (18:1)-ACP. These FAs enter glycerolipid synthesis either via the prokaryotic pathway in the inner envelope of chloroplasts or are exported out of plastids as CoA thioesters to enter the eukaryotic glycerolipid synthesis pathway. Symbols for various components are: CoA, coenzyme A; Lyso-PA, acyl-G3P; PA, phosphatidic acid; PG, phosphatidylglycerol; MGDG, monogalactosyldiacylglycerol; DGDG, digalactosyldiacylglycerol; SL, sulfolipid; DAG, diacylglycerol; DHAP, dihydroxyacetone phosphate. (B) In planta oleic acid levels after 18:1 infiltrations. The HRT ssi2 sid2 leaves were infiltrated with water or 1 mM oleic acid and the fatty acid levels were determined 24 h post treatment from treated and untreated leaves. The 18:1 levels from the untreated wild type plant (HRT) were used as a control.
Fatty acid analysis and oleic acid infiltration. Fatty acid analysis was carried out using gas chromatorgraphy. Oleic acid (Sigma) was dissolved in water and injected into leaves using a needle-less syringe. […]

PR-1 = PR-1 gene expression (northern analysis) in glycerol-treated plants; assay type: in vivo, Arabidopsis; details: exogenous glycerol
Source text: (§2) (A) PR-1 gene expression and 18:1 content in water (W)- and glycerol (G)-treated plants. Ethidium bromide staining of rRNA was used as a loading control. The 18:1 levels are a mean of six independent replicates. (B) RT-PCR analyses showing expression of HRT and SSI4 genes in water- and glycerol-treated plants shown in A. The level of β-tubulin was used as an internal control to normalize the amount of cDNA template. (C) Visible HR formation in water (W)- and glycerol (G)-treated HRT sid2, HRT pad4 and HRT act1 plants at 3 dpi. (D) Percentage TCV resistant plants obtained after exogenous application of water, SA or glycerol. Wild type (HRT or hrt), HRT sid2, HRT pad4 and HRT act1 plants were inoculated 48 h post-treatment and resistance was analyzed 3-weeks post-inoculation. The number of plants tested are indicated above each bar. […] RNA was extracted from the uninoculated tissues at 18 dpi and analyzed for the presence of the viral transcripts (TCV-U). […]
(§3) RNA extraction, RT-PCR and northern analyses. […] RNA quality and concentration were determined by gel electrophoresis and determination of A260. […] Two-to-three independent RNA preparations were used for RT-PCR and each of these were analyzed at least twice by RT-PCR. […] The number of amplification cycles was reduced to 22-25 in order to evaluate and quantify any differences among transcript levels before they reached saturation.

[2] = test system: Turnip Crinkle Virus (TCV); assay: Visible HR formation to TCV in glycerol-treated plants; assay type: in vivo, Arabidopsis; details: glycerol-treated wild-type, HRT sid2 and HRT pad4 plants; 3 dpi
Source text: (§4) (A) PR-1 gene expression and 18:1 content in water (W)- and glycerol (G)-treated plants. Ethidium bromide staining of rRNA was used as a loading control. The 18:1 levels are a mean of six independent replicates. (B) RT-PCR analyses showing expression of HRT and SSI4 genes in water- and glycerol-treated plants shown in A. The level of β-tubulin was used as an internal control to normalize the amount of cDNA template. (C) Visible HR formation in water (W)- and glycerol (G)-treated HRT sid2, HRT pad4 and HRT act1 plants at 3 dpi. (D) Percentage TCV resistant plants obtained after exogenous application of water, SA or glycerol. Wild type (HRT or hrt), HRT sid2, HRT pad4 and HRT act1 plants were inoculated 48 h post-treatment and resistance was analyzed 3-weeks post-inoculation. The number of plants tested are indicated above each bar. Asterisk indicates 100% susceptibility. (E) Systemic spread of TCV to uninoculated tissue in TCV-inoculated plants. RNA was extracted from the uninoculated tissues at 18 dpi and analyzed for the presence of the viral transcripts (TCV-U). Ethidium bromide staining of rRNA was used as a loading control. (F) Typical morphological phenotypes of TCV-inoculated plants that were sprayed either with water (W) or glycerol (G) prior to inoculation. Plants were photographed at 18 dpi.
Pathogen inoculations. […]

HRT = HRT transcript levels (RT-PCR) in glycerol-treated plants; assay type: in vivo, Arabidopsis; details: exogenous glycerol
Source text: as §2, §3

SA levels = SA levels after glycerol application; assay type: in vivo, Arabidopsis; details: dependent on functional SID2 protein
Description: (§5) SA and glycerol treatments. SA and glycerol treatments were carried out by spraying 500 μM and 50 mM solutions, respectively, prepared in sterile water.
Exogenous application of glycerol confers resistance to TCV in an SA-independent but ACT1-dependent manner. Additional evidence supporting a role for 18:1 in regulating HRT gene expression was obtained by glycerol treatment of several genotypes. […] This is because the act1 plants are blocked in the step leading to the acylation of glycerol-3-phosphate with 18:1. […] Since the upregulation of HRT abolishes visible HR to TCV, the development of HR in various glycerol-treated plants was monitored. […] Thus, although the SA-mediated induction of HRT is dependent on PAD4, 18:1-mediated induction of HRT is independent of PAD4.

[3] = test system: Turnip Crinkle Virus (TCV); assay: TCV resistance after exogenous application of SA or glycerol; assay type: in vivo, Arabidopsis; details: for resistance to TCV (percentage of resistant plants): inoculated 48 h post-treatment, analyzed 3 weeks post-inoculation
Source text: as §4, §1, §5

[4] = test system: Turnip Crinkle Virus (TCV); details: exogenous SA prior to dark-treatment of Di-17 plants; cited from earlier work

Row | Compound | TCV replication in inoculated leaf ([1]; 18:1 infiltrated 24 h after TCV inoculation) | increase in amount of TCV transcript in inoculated leaf ([1]; HRT ssi2 sid2 leaves, 18:1 infiltrated before TCV inoculation) | systemic spread of the virus ([1]; HRT ssi2 sid2 plants, 18:1 injections) | TCV replication (TCV transcript) in the inoculated leaves ([1]; wild-type Di-17 or Col-0 leaves, 18:1 (1 mM) vs water injected 24 h before TCV inoculation, 3 dpi) | 18:1 levels after exogenous application of 18:1 (18:1 content; HRT ssi2 sid2, site of infiltration vs untreated leaves, 24 h post treatment) | 18:1 content (18:1 content; exogenous glycerol (50 mM spray), wild-type, HRT sid2 and HRT pad4 plants) | PR-1 gene expression (PR-1; HRT sid2 plants) | PR-1 gene expression (PR-1; wild-type and HRT pad4 plants) | visible HR to TCV [2] | HRT transcript levels (HRT; HRT act1 plants) | HRT transcript levels (HRT; wild-type, HRT sid2 and HRT pad4 plants) | SA levels (SA levels) | resistance to TCV (percentage of resistant plants) ([3]; Col-0 (hrt) plants) | resistance to TCV (percentage of resistant plants) ([3]; HRT act1 plants) | resistance to TCV (percentage of resistant plants) ([3]; HRT pad4 plants) | more TCV-resistant plants in comparison to SA pretreatment ([3]; HRT sid2 plants, glycerol vs SA pretreatment) [%] | resistance to TCV (percentage of resistant plants) ([3]; HRT sid2 plants) | dark-triggered susceptibility to TCV [4]
1 | CCCCCCCC/C=C\CCCCCCCC(=O)O [18:1, oleic acid] | remained unaffected | 6-8 fold | did not allow systemic spread of the virus | did not appear to alter TCV replication | only normalized 18:1 levels locally |  |  |  |  |  |  |  |  |  |  |  |  | 
2 | OCC(O)CO [glycerol] |  |  |  |  |  | lowered 18:1 content | failed to induce PR-1 gene expression | upregulation of PR-1 gene expression | developed no visible HR | not in HRT act1 | induced HRT transcript levels | induced high levels of SA | not in HRT act1 or Col-0 plants | not in HRT act1 or Col-0 plants | significantly enhanced resistance | ~30 | enhanced resistance to TCV | 
3 | O=C(O)c1ccccc1O [SA, Salicylic acid, reference compound] |  |  |  |  |  |  |  |  |  |  |  |  |  | substantial increase | only a marginal increase |  |  | prevents dark-triggered susceptibility
